Data published in US20150273010A1 (priority 2012, published 2015).

Tests used:
Format in all cases: cell-based
HIV-1 PR [1] = target: T1, HIV-1 PR (Human immunodeficiency virus type 1 group M subtype B, UniProt P04585); settings: 293T cells, PR/RT cleavage site, added as PI
HIV-1 PR [2] = target: T1, HIV-1 PR
From the text: For that purpose, the well-characterized PR/RT and RT/IN HIV-1 boundaries were introduced between the Gal4 domains.

HIV-1 PR [3] = target: T1, HIV-1 PR; settings: 10 μM; Gal4/PR SupT1 clones, 1 μg/mL Dox
SupT1 cells = test: Toxicity of PI to cells during the Gal4/library/PR screen; settings: 100.M Indinavir, with PR as part of a fusion, time frame required for the screen
From the text: The screen starts with the addition of Dox. In alternative embodiments, cells can be non-fluorescent and not contain a Gal4/library fusion protein at all, or they can express a fusion protein cleaved by HIV-1 PR or cellular proteases. Cells expressing a non-cleaved fusion can be fluorescent (FIG. 10A panel a) as they will be able to activate the E2-Crimson reporter. This population is not of interest in this screen. In alternative embodiments, the non-fluorescent population is sorted and expanded (FIG. 10A panel b). In alternative embodiments, cells are then treated again with Dox, but this time in the presence of PI (100.M Indinavir). We have shown that Indinavir at this concentration, and PR as part of a fusion, are not toxic at least for the time frame required for the screen. Only the subpopulation of cells that express a substrate specific for PR should turn fluorescent and thus be E2-Crimson positive (FIG. 10A panel c). In alternative embodiments, this population is sorted and amplified (FIG. 10A panel d) and used to obtain individual clonal populations by growing individual cells in a 96-well format.

HIV-1 PR [4] = target: T1, HIV-1 PR; settings: HEK 293T co-transfected with p55 and PR, 48 hours post-transfection, PI present
Protocol: Transfected cells were analyzed 48 hours post-transfection with anti-p24 antibody. […] Quantification of the Western blots by IMAGEJ™ (ImageJ™) software. Band intensities are plotted as a ratio of p24 to p55.
We performed a biochemical assay to assess PR activity based on its ability to cleave one of its natural substrates—the p55 Gag poly-protein. For this purpose, p96ZM651gag-opt (from the NIH AIDS reagent program) with humanized codons for optimal expression, was used as substrate. Cells were co-transfected with p55 and PR in the presence or absence of Ritonavir as PI. Cells were then analyzed by western blot 48 hours post-transfection with antibodies against HIV p24, capsid (NIH AIDS reagent program).

[5] = tested on: self-inactivating pseudo-typed HIV-1 (sinHIV-GFP); test: sinHIV-GFP infection screen of SupT1 cells expressing nuclear random peptide library (FACS); settings: clones isolated after 12 rounds of infection/selection; compared to the mCherry control
Protocol: A retroviral random peptide library localized to the nucleus, 3XF(GGS)3 NLS RPL, was used to search for novel inhibitors of HIV-1. In order to screen a population of SupT1 expressing this library, a self-inactivating pseudo-typed HIV-1 carrying a pCMV-GFP expression cassette was utilized. The 3XF(GGS)3 NLS RPL SupT1 cells and cells expressing pBMN.i.mCherry were then screened by infection with sinHIV-GFP. 72 hours post-infection, the cells were sorted by Fluorescence Activated Cell Sorting (FACS) based on the expression of GFP, retaining and expanding GFP-negative cells in culture. […] Following 12 rounds of infection, selection of non-fluorescent cells and amplification of the 3XF(GGS)3 NLS RPL expressing SupT1 cells, eight clones were isolated, and expanded in culture.

CC(C)CN(C[C@@H](O)[C@H](Cc1ccccc1)NC(=O)O[C@H]1CO[C@H]2OCC[C@H]21)S(=O)(=O)c1ccc(N)cc1 [Darunavir, darunavir]
reversal of PR-dependent reduction in green fluorescence (HIV-1 PR [1]): the trend was reversed
inhibition of PR-dependent decrease in E2-C fluorescence (HIV-1 PR [2]): strongly inhibited

CC(C)(C)NC(=O)[C@@H]1CN(Cc2cccnc2)CCN1C[C@@H](O)C[C@@H](Cc1ccccc1)C(=O)N[C@H]1c2ccccc2C[C@H]1O [Indinavir]
PR inhibition read as GFP induction (HIV-1 PR [3]): inhibited PR, allowing robust GFP induction
toxicity (SupT1 cells): not toxic

CC(C)c1nc(CN(C)C(=O)N[C@H](C(=O)N[C@@H](Cc2ccccc2)C[C@H](O)[C@H](Cc2ccccc2)NC(=O)OCc2cncs2)C(C)C)cs1 [Ritonavir]
p55 Gag poly-protein processing by PR (HIV-1 PR [4]): poly-protein processing is hindered

Thr Arg Arg Val Ala His Asn Ser Glu (TRRVAHNSE) [Clone 2]
decrease in sinHIV-GFP infection rate [5]: largest decrease

Trp Arg Gly Ala Ala Met Val Arg Gly (WRGAAMVRG) [Clone 6]
decrease in sinHIV-GFP infection rate [5]: largest decrease
